Data taken from US20160346255A1, “METHODS, AGENTS AND COMPOSITIONS FOR TREATMENT OF INFLAMMATORY CONDITIONS” (Betanien Hospital, priority 2014, published 2016).
Like-named read-outs stand apart in the source and are kept apart here. Non-standard residues stand in square brackets, D forms with d. Residues, ends and D or L forms follow the SMILES beside them. d(hArg(Et2)) = CCN=C(NCC)NCCCC[C@@H](N)C(=O)O; hArg(Et2) = CCN=C(NCC)NCCCC[C@H](N)C(=O)O; dPhe(4-Cl) = N[C@H](Cc1ccc(Cl)cc1)C(=O)O; d2Nal = N[C@H](Cc1ccc2ccccc2c1)C(=O)O; dCit = NC(=O)NCCC[C@@H](N)C(=O)O; d3Pal = N[C@H](Cc1cccnc1)C(=O)O

How the values were obtained:
[1] = system: Patient with Lupus; assay: Lupus patient treated with degarelix (and earlier therapies); type: in vivo, human; conditions: for Reducing the pain in their extremities / Side effects: previous therapy
Description: Example of Treating a Patient with Lupus with a GnRH Antagonist
Due to their painful condition, they have been followed up by a pain clinic. They were offered a tricyclic antidepressant, amitriptyline 25 mg in March 2014 for their painful condition.
Therefore, we decided to offer […] degarelix. GnRH antagonists have shown anti-inflammatory effects and therefore we considered that degarelix, a depot GnRH antagonist, may have a therapeutic effect in lupus. 09.15.14, […] received […] loading dose of degarelix, 240 mg s.c.
They received their second dose of degarelix in October 2014, 80 mg s.c. They continue on 80 mg s.c. every two weeks.

[2] = system: patients with active longstanding RA; assay: Double-blinded randomised study of cetrorelix in active longstanding RA (NCT00667758, AGRA); type: in vivo, human; conditions: preceding the P1NP reduction at day 10
From the text: The manuscript by Kass et al., 2014 Scand. J. Rheumatol., 43 (1), 22-27, describes a short term study of a GnRH antagonist, Cetrorelix (AGRA study). This is the first human study of GnRH antagonist treatment in an inflammatory disease. […] However, some patients did show some response and the response was thought to be limited to patients with above normal levels of LH and FSH (Abstract to the 13th annual American College of Rheumatology meeting). […] However, current TNFα inhibiting therapy in rheumatoid arthritis is long term. […] There are several examples in medicine that give positive immediate effects in disease but are unsuitable for long term use, either due to lack of efficacy, safety or both.
In this double-blinded, single-site study in Norway (ClinicalTrials.gov NCT00667758), 99 patients with active longstanding RA, were randomised to predefined intention-to-treat populations using computer-generated allocation (1:1) in dynamic blocks stratified for sex. Patients were assigned to subcutaneous cetrorelix (n=48) (5 mg days 1-2, 3 mg days 3-5) or placebo (n=51). P1NP was measured on day 10. We investigated serum P1NP between groups, a predefined secondary endpoint. Detailed efficacy and safety data are presented separately.

[3] = system: Patient with Rheumatoid Arthritis; assay: Rheumatoid arthritis patient treated with cetrorelix; type: in vivo, human; conditions: at 12 weeks
Description: (§1) • person with seropositive rheumatoid arthritis with disease duration of 10 years. • Fulfilled ACR 2010 classification criteria for rheumatoid arthritis.
• Had tried all therapies available previously without effect. • Offered experimental GnRH antagonist therapy, cetrorelix in 0.5 mg s.c. daily in October 2014, then 0.75 mg s.c. daily in December 2014.

[4] = system: patients with active longstanding RA; conditions: 5 days of treatment; Kass et al. 2014; cited from earlier work
[5] = system: Patient with Osteoarthritis; assay: Intra-articular cetrorelix in a patient with osteoarthritis; type: in vivo, human; conditions: 1 mg injected into both knees; 2 week post injection
Description: • person with osteoarthritis of both knees diagnosed by X-ray 10 years ago. • Has had synovitis secondary to osteoarthritis in both knees for the last month, confirmed by synovitis on ultrasound. • In order to treat the secondary inflammation as a result of their knee osteoarthritis, they are offered intra-articular GnRH antagonist treatment, for example cetrorelix 1 mg injected into both knees. Subcutaneous cetrorelix for injection can be used. • Before and 2 week post injection ultrasound images are taken to show a decrease in synovitis in the knee joint.

[6] = system: mice; assay: Mouse study of preventing age related inflammation with cetrorelix; type: in vivo; conditions: 0.5 mg/kg daily with or without gonadal hormone replacement
Description: An animal study is conducted with 40 fertile female mice aged approximately 6-20 months in a control group (group 1) receiving placebo, 40 age and sex matched mice receiving a drug that reduces the activity of GnRH (group 2), such as cetrorelix 0.5 mg/kg daily, and 40 age and sex matched mice receiving the same GnRH inhibitor as group 2, but with the additional replacement of gonadal hormone (oestrogen) to age adjusted pre-chosen levels. All mice are followed prospectively, and evaluated for systemic inflammation markers, atherosclerosis, osteoporosis, LDL, and age at death. The same three interventions and assessments are carried out in three groups of male mice with 40 male mice in each group, aged approximately 6-20 months, replacing the gonadal hormone testosterone to pre-chosen levels in group 3. Mice treated with a drug that reduces the activity of GnRH, such as cetrorelix 0.5 mg/kg daily with or without the replacement of gonadal hormone (preferably with) reach a higher age at death compared with mice in the placebo groups. These mice also show less atherosclerosis, osteoporosis and systemic inflammation than mice in the placebo groups.

[7] = system: systemic sclerosis patients; conditions: over 12 months; increased from 7; cited from earlier work
[8] = system: Patient with Rheumatoid Arthritis; assay: Rheumatoid arthritis patient treated with ganirelix; type: in vivo, human; conditions: at 4 months
Description: as §1
• Had tried almost all available rheumatoid arthritis therapies available previously without effect. • Offered experimental GnRH antagonist therapy, ganirelix 0.75 mg s.c. daily (0.25 mg s.c. three times a day).
• Disease activity score (DAS) reduction from 5.5 to 2.2 (remission). • A DAS reduction of 0.6 units is defined as a clinical response to treatment (1). • […] ESR decreased from 28 mm to 19 mm, with a normalization of their CRP from 23 mg/L to 5 mg/L. This is supported by the decrease in their anti-cyclic citrullinated peptide (CCP) antibodies from 27 μ/mL to 14 μ/mL.

[9] = system: Patient with Tendonitis; assay: Tendonitis patient treated with ganirelix injection; type: in vivo, human; conditions: 1.5 mg injected around the affected tendon; 2 week post injection
Description: • person diagnosed with tendonitis of the elbow with ultrasound confirming tendonitis.
• Treated with an injection of GnRH antagonist, ganirelix 1.5 mg, around the affected tendon.
• Before and 2 week post injection ultrasound images are taken to show a decrease in tendonitis of the elbow. […] Such injections may be administered over the long-term, for example every 3 months to maintain optimal effect.

[10] = system: patients with psoriasis who were taking lithium; conditions: 15 patients, after 10 weeks, cited from earlier work
[11] = system: Patient with Ankylosing Spondylitis; assay: Ankylosing spondylitis patient treated with degarelix (and earlier TNF inhibitors); type: in vivo, human; conditions: ankylosing spondylitis patient
From the text: Example of Treating a Patient with Ankylosing Spondylitis with a GnRH Antagonist
Diagnosed with ankylosing spondylitis in 1984, HLAB27 positive, with repeated iridocyclitis. Used non-steroidal anti-inflammatory drugs previously. They were offered the TNFα inhibitor Golilimumab in 2010. Their disease activity score was 8.9 in October 2010 (see below for explanation of disease activity score) on initiating Golilimumab; by the June 2012 this score had reduced to 6.6, but by May 2013 the effect had worn off and their score was 7.6. May 2013, they initiated Enbrel treatment, but their disease activity increased from 7.6 to 8.3. Due to their poor response to TNFα therapy, they were offered the GnRH antagonist degarelix in September 2014.
Disease activity in ankylosing spondylitis is measured by the BASDAI (Bath Ankylosing Spondylitis Disease Activity Index (1)), which has been extensively validated in clinical trials, 2, 3 and is one of the most commonly used outcome measures in clinical trials. This is a composite index that evaluates fatigue, axial and peripheral pain, stiffness and enthesopathy. Their BASDAI was at 8.7 at baseline. In September 2014 they received their first dose of degarelix 240 mg s.c. By 2 weeks, their BASDAI had reduced to 6.8, and by 6 weeks it had reduced to 5.8. This is the lowest BASDAI score they have ever had since we first started using this method of assessment 4 years ago in 2010. Their morning stiffness lasted 4 hours at baseline, by 6 weeks their morning stiffness had reduced to 2 hours. They had their second dose of degarelix 80 mg s.c in October 2014. Lumbar flexion and maximum arm abduction were increased after 6 weeks of treatment.
Response to therapy in clinical practice is defined as improvement of 2 units or 50% on a 0-10 scale of the BASDAI, and expert opinion that the treatment should be continued. Their reduction by 6 weeks was 2.9 units, and 7.1 units with an 82% BASDAI score improvement by 9 weeks, and we shall continue treatment. A BASDAI 50% improvement is defined as a major clinical response. […] For comparison, approximately 50-60% of patients achieve a BASDAI 50 by 12 weeks on TNF inhibitors (4). Their ESR has decreased from 46 mm to 23 mm, which is their lowest ESR reading in 19 years. […] By 9 weeks of GnRH antagonist therapy, their kidney function has normalized, and fasting glucose reduced from 7.4 to 6.5 mmol/L. By 3 months, the effect on their ankylosing spondylitis remained, creatinine was at 98 μmol/L, with a glomerular filtration rate of 66 ml/min/1.73 m^2 in December 2014.

[12] = system: patients with IBD; conditions: week 2 after an infusion; cited from earlier work

Compound: CN(C)CCC=C1c2ccccc2CCc2ccccc21 [amitriptyline]
- Effect on pain ([1]; 25 mg, March 2014): no effect
- Effect on pain ([1]; 50 mg, April 2014): no effect
- Effect on pain ([1]; 150 mg daily): no effect

Compound: Cn1cnc([N+](=O)[O-])c1Sc1ncnc2nc[nH]c12 [azathioprine]
- Reducing the pain in their extremities [1]: not effective
- Side effects [1]: intolerable side effects such as mouth ulcers

Compound: CC(=O)N[C@H](Cc1ccc2ccccc2c1)C(=O)N[C@H](Cc1ccc(Cl)cc1)C(=O)N[C@H](Cc1cccnc1)C(=O)N[C@@H](CO)C(=O)N[C@@H](Cc1ccc(O)cc1)C(=O)N[C@H](CCCNC(N)=O)C(=O)N[C@@H](CC(C)C)C(=O)N[C@@H](CCCNC(=N)N)C(=O)N1CCC[C@H]1C(=O)N[C@H](C)C(N)=O [cetrorelix] (Ac-[d2Nal][dPhe(4-Cl)][d3Pal]SY[dCit]LRP[dA]-NH2)
- Disease activity markers and TNF-α (log pg/mL) [2]: significant reductions
- Disease activity score (DAS) ([3]; 0.5 then 0.75 mg s.c. daily, from 6.1): 5.5
- CRP ([3]; from 41 mg/L): 18 mg/L
- Rheumatoid factor ([3]; from 137 kIU/L): 111 kIU/L
- ESR ([3]; normalized from 35 mm): 28 mm
- Primary end-point with regard to clinical response [4]: did not meet the primary end-point
- TNFα [4]: possible reduction
- Synovitis in the knee joint on ultrasound [5]: decrease
- Age at death vs placebo groups [6]: higher
- Atherosclerosis vs placebo groups [6]: less
- Osteoporosis vs placebo groups [6]: less
- Systemic inflammation vs placebo groups [6]: less

Compound: O=P1(N(CCCl)CCCl)NCCCO1 (stereo not drawn) [cyclophosphamide]
- Digital ulcers, average number [7]: 9 ulcers

Compound: NCC1(CC(=O)O)CCCCC1 [gabapentin]
- Effect on pain ([1]; 100 mg×3 up to 1200 mg×3): no effect

Compound: CCN=C(NCC)NCCCC[C@H](NC(=O)[C@H](CC(C)C)NC(=O)[C@@H](CCCCNC(=NCC)NCC)NC(=O)[C@H](Cc1ccc(O)cc1)NC(=O)[C@H](CO)NC(=O)[C@@H](Cc1cccnc1)NC(=O)[C@@H](Cc1ccc(Cl)cc1)NC(=O)[C@@H](Cc1ccc2ccccc2c1)NC(C)=O)C(=O)N1CCC[C@H]1C(=O)N[C@H](C)C(N)=O [ganirelix] (Ac-[d2Nal][dPhe(4-Cl)][d3Pal]SY[d(hArg(Et2))]L[hArg(Et2)]P[dA]-NH2)
- Disease activity score (DAS) ([8]; 0.75 mg s.c. daily, remission, from 5.5): 2.2
- Anti-cyclic citrullinated peptide (CCP) antibodies ([8]; from 27 μ/mL): 14 μ/mL
- ESR ([8]; from 28 mm): 19 mm
- Rheumatoid factor ([8]; from 113 kIU/L): 75 kIU/L
- CRP ([8]; normalization from 23 mg/L): 5 mg/L
- Tendonitis of the elbow on ultrasound [9]: decrease

Compound: O[C@H]1[C@H](O)[C@@H](O)[C@H](O)[C@@H](O)[C@H]1O [inositol]
- Median PASI score reduction [10]: 35%
- Median PASI score reduction ([10]; median pretreatment PASI 4.9): 1.7 points

Compound: CN(Cc1cnc2nc(N)nc(N)c2n1)c1ccc(C(=O)N[C@@H](CCC(=O)O)C(=O)O)cc1 [methotrexate]
- Reducing the pain in their extremities [1]: not effective
- Side effects [1]: intolerable side effects such as mouth ulcers

Compound: COc1c(C)c2c(c(O)c1C/C=C(\C)CCC(=O)OCCN1CCOCC1)C(=O)OC2 [mycophenolate mofetil]
- Reducing the pain in their extremities [1]: not effective
- Side effects [1]: intolerable side effects such as mouth ulcers

Compound: CC(C)C[C@H](CN)CC(=O)O [pregabalin]
- Effect on pain ([1]; up to 150 mg×2): no effect

Compound: Enbrel
- Disease activity score (BASDAI) ([11]; treatment initiated May 2013 at 7.6): 8.3

Compound: Golilimumab: TNFα inhibitor Golilimumab
- Disease activity score (BASDAI) ([11]; June 2012, 8.9 on initiating in October 2010): 6.6
- Disease activity score (BASDAI) ([11]; May 2013, effect had worn off): 7.6

Compound: infliximab: anti-TNFα monoclonal antibody
- Fecal calprotectin concentration [12]: decreases significantly
